Experimental findings from PubChem BioAssay AID328 (DTP/NCI, 2004) are described below.

The test system of this test is BDF1 mice, P388 leukemia ip, median survival T/C. As to the kind of experiment: NCI In Vivo Anticancer Drug Screen. Data for tumor model P388 Leukemia (intraperitoneal) in B6D2F1 (BDF1) mice. Particulars: endpoint: median survival time, higher = longer survival. An outline of the steps: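 Reported as T/C, where T is the survival measurement in dosed animals and C the same measurement in vehicle controls.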

The mark [1] stands for this setting: dose: 100.0 mg/kg/injection, schedule: Q01DX009 (ip), vehicle: Klucel (hydroxypropylcellulose) (HPC).
Where [2] appears, read: dose: 12.5 mg/kg/injection, schedule: Q04DX003 (ip), vehicle: saline with Tween-80.
The mark [3] stands for this setting: dose: 25.0 mg/kg/injection, schedule: Q04DX003 (ip), vehicle: saline with Tween-80.
The mark [4] stands for this setting: dose: 50.0 mg/kg/injection, schedule: Q04DX003 (ip), vehicle: saline with Tween-80.
[5] abbreviates: dose: 100.0 mg/kg/injection, schedule: Q04DX003 (ip), vehicle: saline with Tween-80.
The mark [6] stands for this setting: dose: 25.0 mg/kg/injection, schedule: Q01DX009 (ip), vehicle: saline with Tween-80.
Setting [7] is: dose: 100.0 mg/kg/injection, schedule: Q01DX009 (ip), vehicle: saline with Tween-80.
[8] abbreviates: dose: 200.0 mg/kg/injection, schedule: Q01DX009 (ip), vehicle: saline with Tween-80.
[9] abbreviates: dose: 200.0 mg/kg/injection, schedule: Q04DX003 (ip), vehicle: saline with Tween-80.
[10] abbreviates: dose: 400.0 mg/kg/injection, schedule: Q01DX009 (ip), vehicle: saline with Tween-80.
Where [11] appears, read: dose: 400.0 mg/kg/injection, schedule: Q04DX003 (ip), vehicle: saline with Tween-80.
[12] abbreviates: dose: 50.0 mg/kg/injection, schedule: Q01DX009 (ip), vehicle: saline with Tween-80.
Where [13] appears, read: dose: 50.0 mg/kg/injection, schedule: Q01DX009 (ip), vehicle: saline.
[14] abbreviates: dose: 200.0 mg/kg/injection, schedule: Q01DX009 (ip), vehicle: saline.
Setting [15] is: dose: 100.0 mg/kg/injection, schedule: Q04DX003 (ip), vehicle: saline.
Where [16] appears, read: dose: 200.0 mg/kg/injection, schedule: Q04DX003 (ip), vehicle: saline.
Where [17] appears, read: dose: 100.0 mg/kg/injection, schedule: Q01DX009 (ip), vehicle: saline.
[18] abbreviates: dose: 400.0 mg/kg/injection, schedule: Q01DX009 (ip), vehicle: saline.
Where [19] appears, read: dose: 400.0 mg/kg/injection, schedule: Q04DX003 (ip), vehicle: saline.

The structures appear in SMILES notation. Values joined by “and” are separate entries in the source; they are usually repeats but may differ in a detail not shown here. Equal entries are not always repeated. Toxic doses and inconclusive results are not listed.

For `CCOC(=O)C(COS(=O)(=O)c1ccc(C)cc1)(COS(=O)(=O)c1ccc(C)cc1)C(=O)OCC`, the T/C was 108 % of control under setting [1]; 100 % of control (dose: 100.0 mg/kg/injection, schedule: Q04DX003 (ip), vehicle: Klucel (hydroxypropylcellulose) (HPC)); 104 % of control (dose: 200.0 mg/kg/injection, schedule: Q01DX009 (ip), vehicle: Klucel (hydroxypropylcellulose) (HPC)); 104 % of control (dose: 200.0 mg/kg/injection, schedule: Q04DX003 (ip), vehicle: Klucel (hydroxypropylcellulose) (HPC)); 100 % of control (dose: 400.0 mg/kg/injection, schedule: Q01DX009 (ip), vehicle: Klucel (hydroxypropylcellulose) (HPC)); 100 % of control (dose: 400.0 mg/kg/injection, schedule: Q04DX003 (ip), vehicle: Klucel (hydroxypropylcellulose) (HPC)).

Take `COc1cc(Br)c(/C=C/[N+](=O)[O-])cc1OC`: the T/C was 105 % of control under setting [2]; 105 % of control and 107 % of control under setting [3]; 113 % of control under setting [4]; 123 % of control under setting [5].

Consider `Cc1cccc(C(=O)C=C(C(F)(F)F)C(F)(F)F)c1`, for which the T/C reads like this: (dose: 6.25 mg/kg/injection, schedule: Q01DX009 (ip), vehicle: saline with Tween-80) 110 % of control; (dose: 12.5 mg/kg/injection, schedule: Q01DX009 (ip), vehicle: saline with Tween-80) 155 % of control; under setting [2], 119 % of control; (dose: 12.5 mg/kg/injection, schedule: Q04DX003 (sc), vehicle: saline with Tween-80) 105 % of control; under setting [6], 150 % of control; under setting [3], 104 % of control. For the same compound, the T/C reads like this: (dose: 25.0 mg/kg/injection, schedule: Q04DX003 (sc), vehicle: saline with Tween-80) 115 % of control; under setting [4], 119 % of control; (dose: 50.0 mg/kg/injection, schedule: Q04DX003 (sc), vehicle: saline with Tween-80) 120 % of control.

With `C(=C\c1ccccc1)/CSc1ncnc2nc[nH]c12`, the T/C reads like this: under setting [7], 104 % of control; under setting [5], 90 % of control; under setting [8], 104 % of control; under setting [9], 104 % of control; under setting [10], 100 % of control; under setting [11], 100 % of control.

With `CCOC(=O)C1C2OC(=O)C(C(=O)C2CN(CCCl)CCCl)C1C1CC=C(CC2=CCC(C3C4C(=O)OC(C(CN(CCCl)CCCl)C4=O)C3C(=O)OCC)CC2)CC1` (centres undefined), the T/C was 169 % of control (dose: 6.25 mg/kg/injection, schedule: Q01DX009 (ip), vehicle: Klucel (hydroxypropylcellulose) (HPC)); 165 % of control (2×) and 178 % of control (dose: 12.5 mg/kg/injection, schedule: Q01DX009 (ip), vehicle: Klucel (hydroxypropylcellulose) (HPC)); 176 % of control and 184 % of control and 189 % of control (dose: 25.0 mg/kg/injection, schedule: Q01DX009 (ip), vehicle: Klucel (hydroxypropylcellulose) (HPC)); 184 % of control and 208 % of control and 215 % of control (dose: 50.0 mg/kg/injection, schedule: Q01DX009 (ip), vehicle: Klucel (hydroxypropylcellulose) (HPC)); 265 % of control and 291 % of control and 109 % of control under setting [1].

For `Cc1cc(O)c(C(c2ccccc2)c2c(O)cc(C)[nH]c2=O)c(=O)[nH]1`, the T/C is, setting by setting: under setting [12], 94 % of control; under setting [7], 86 % of control.

Take `COc1ccccc1C(C#N)N1CCCN(C(C#N)c2ccccc2OC)C1c1cc(Cl)cc(Cl)c1O` (centres undefined): the T/C is 95 % of control under setting [12], 98 % of control under setting [7], 98 % of control under setting [8] and 91 % of control under setting [10].

For `COc1ccc(-c2noc(=O)c3ccccc23)cc1`, the T/C is, setting by setting: under setting [12], 102 % of control; under setting [7], 100 % of control; under setting [8], 114 % of control.

For the compound `O=C1C=C(NCc2ccccc2)CCC1`, the T/C was 108 % of control under setting [6], 100 % of control under setting [12], 96 % of control under setting [13] and 105 % of control under setting [14].

In the case of `Cn1cnc([N+](=O)[O-])c1Cl`, the T/C by setting is: under setting [6], 101 % of control; (dose: 50.0 mg/kg/injection, schedule: Q01DX005 (ip), vehicle: saline) 95 % of control; under setting [12], 92 % of control; (dose: 100.0 mg/kg/injection, schedule: Q01DX005 (ip), vehicle: saline) 104 % of control; under setting [7], 106 % of control; under setting [15], 100 % of control. In addition, the T/C was 101 % of control under setting [8] and 105 % of control under setting [16].

As for `COc1ccc(C(C(N)=O)N2CCCC2)cc1` (centres undefined), the T/C is, setting by setting: under setting [5], 110 % of control; under setting [9], 120 % of control; under setting [11], 100 % of control.

Take `O=S(=O)(O)c1ccc(Br)cc1`: the T/C under setting [17] was 92 % of control; the T/C under setting [15] was 115 % of control; the T/C under setting [14] is 107 % of control; the T/C under setting [16] is 110 % of control; the T/C under setting [18] was 100 % of control; the T/C under setting [19] is 115 % of control.

As to `O=C(NNc1ccccc1)C12CC3CC(CC(C3)C1)C2`, the T/C is, setting by setting: under setting [12], 96 % of control; under setting [7], 91 % of control.

In the case of `NC(Cc1c[nH]c2ccccc12)C(=O)OCc1ccccc1` (centres undefined), the T/C (dose: 3.12 mg/kg/injection, schedule: Q01DX009 (ip), vehicle: water) is 106 % of control; the T/C (dose: 3.12 mg/kg/injection, schedule: Q04DX003 (ip), vehicle: water) is 100 % of control; the T/C (dose: 6.25 mg/kg/injection, schedule: Q01DX009 (ip), vehicle: water) was 101 % of control; the T/C (dose: 6.25 mg/kg/injection, schedule: Q04DX003 (ip), vehicle: water) was 88 % of control; the T/C (dose: 12.5 mg/kg/injection, schedule: Q01DX009 (ip), vehicle: water) is 93 % of control; the T/C (dose: 12.5 mg/kg/injection, schedule: Q04DX003 (ip), vehicle: water) was 123 % of control. Further, the T/C by setting is: (dose: 25.0 mg/kg/injection, schedule: Q01DX009 (ip), vehicle: water) 97 % of control; (dose: 25.0 mg/kg/injection, schedule: Q04DX003 (ip), vehicle: water) 108 % of control; (dose: 50.0 mg/kg/injection, schedule: Q01DX009 (ip), vehicle: water) 92 % of control; (dose: 50.0 mg/kg/injection, schedule: Q04DX003 (ip), vehicle: water) 97 % of control; (dose: 100.0 mg/kg/injection, schedule: Q01DX009 (ip), vehicle: water) 101 % of control; (dose: 200.0 mg/kg/injection, schedule: Q01DX009 (ip), vehicle: water) 110 % of control.

For `CC(C)(C)c1cc2c3c(c1)C(C)(C)OS3(C)OC2(C)C`, the T/C is 102 % of control (dose: 6.25 mg/kg/injection, schedule: Q04DX003 (ip), vehicle: saline with Tween-80); 100 % of control under setting [2]; 92 % of control under setting [3].

Consider `CC1(C)N=C(N)N=C(N)N1c1cccc(CC(=O)Nc2ccc(S(=O)(=O)F)cc2)c1`, for which the T/C reads like this: under setting [6], 120 % of control; under setting [12], 155 % of control; under setting [7], 175 % of control; under setting [8], 170 % of control.

With `CC(C)(N)COS(=O)(=O)O`, the T/C is, setting by setting: under setting [13], 100 % of control; under setting [17], 90 % of control and 100 % of control; under setting [15], 100 % of control; under setting [14], 95 % of control; under setting [16], 100 % of control; under setting [18], 100 % of control. Moreover, the T/C under setting [19] is 100 % of control.

For the compound `CC(C)C(=O)OCC1OC(n2cnc3c(=S)nc[nH]c32)C(OC(=O)C(C)C)C1OC(=O)C(C)C` (centres undefined), the T/C is 104 % of control (dose: 88.0 mg/kg/injection, schedule: Q01DX009 (ip), vehicle: saline with Tween-80); 118 % of control under setting [7]; 95 % of control (dose: 133.0 mg/kg/injection, schedule: Q01DX009 (ip), vehicle: saline with Tween-80); 100 % of control under setting [8]; 100 % of control (dose: 300.0 mg/kg/injection, schedule: Q01DX009 (ip), vehicle: saline with Tween-80); 100 % of control under setting [10].
